According to US20260138990A1, “TRICYCLIC FUSED IMIDAZOLE COMPOUNDS AS CD38 MODULATORS AND USES THEREOF” (AEOVIAN PHARMACEUTICALS, INC., priority 2023, published 2026):

Assays:
human CD38 = biological target: T1, human CD38 (Homo sapiens, UniProt P28907); assay: NAD+ cyclase activity assay with human recombinant CD38 protein (ε-NAD fluorescence); format: biochemical; details: 1.9 nM human CD38, substrate ε-NAD, 30 min preincubation, fluorescence 300/410 nm
T1 construct: purchased Bio-Techne GmbH AVI2404
T1 sequence (P28907 1-300): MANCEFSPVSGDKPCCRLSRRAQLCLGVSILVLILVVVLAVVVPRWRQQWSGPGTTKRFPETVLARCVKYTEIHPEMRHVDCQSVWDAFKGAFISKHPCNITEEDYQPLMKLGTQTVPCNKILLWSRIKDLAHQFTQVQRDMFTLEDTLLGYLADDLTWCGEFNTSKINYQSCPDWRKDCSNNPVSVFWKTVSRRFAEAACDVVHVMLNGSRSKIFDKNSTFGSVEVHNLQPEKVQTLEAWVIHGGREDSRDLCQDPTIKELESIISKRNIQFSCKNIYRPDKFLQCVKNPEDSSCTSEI
Summary of the method: (§1)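 Twelve-point threefold compound dilutions were given 30 min at room temperature with 0.6 nM mouse or 1.9 nM human CD38 before […] ε-NAD was added (pH 7.5 HEPES/sucrose/Tween buffer). The rate came from the linear-phase slope of ex 300/em 410 nm fluorescence against vehicle and no-CD38 controls.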

mouse CD38 = biological target: T2, mouse CD38 (Mus musculus, UniProt P56528); assay: NAD+ cyclase activity assay with mouse recombinant CD38 protein (ε-NAD fluorescence); format: biochemical; details: 0.6 nM mouse CD38, substrate ε-NAD, 30 min preincubation, fluorescence 300/410 nm
T2 construct: purchased Bio-Techne GmbH 4947-AC
T2 sequence (P56528 1-304): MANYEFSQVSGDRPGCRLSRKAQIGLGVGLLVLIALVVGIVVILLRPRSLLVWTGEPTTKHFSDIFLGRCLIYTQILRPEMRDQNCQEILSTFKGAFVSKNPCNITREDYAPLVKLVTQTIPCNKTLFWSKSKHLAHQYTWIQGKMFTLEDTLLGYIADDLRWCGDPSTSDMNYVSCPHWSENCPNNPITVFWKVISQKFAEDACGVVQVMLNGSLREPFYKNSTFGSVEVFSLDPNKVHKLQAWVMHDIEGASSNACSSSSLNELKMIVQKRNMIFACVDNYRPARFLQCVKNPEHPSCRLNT
Summary of the method: as §1

Molecule	IC50 (human CD38) [nM]	IC50 (mouse CD38) [nM]
O=C(N[C@@H]1CCCOC1)c1ccc2[nH]c(=O)c3cncn3c2c1 [Compound 13A, (R)-4-Oxo-N-(tetrahydro-2H-pyran-3-yl)-4,5-dihydroimidazo[1,5-a]quinoxaline-8-carboxamide]	> 1000	> 100
CN(C)c1nc2ccc(C(=O)N[C@@H]3CCCOC3)cc2n2cncc12 [Compound 35A, (R)-4-(Dimethylamino)-N-(tetrahydro-2H-pyran-3-yl)imidazo[1,5-a]quinoxaline-8-carboxamide]	> 1000	> 100
COCCOc1ncc(NC(=O)c2ccc3c(c2)-c2cncn2CCO3)cn1 [Compound 81A, N-(2-(2-Methoxyethoxy)pyrimidin-5-yl)-5,6-dihydrobenzo[f]imidazo[1,5-d][1,4]oxazepine-10-carboxamide]	< 30	1 to 10
CCCS(=O)(=O)N[C@H]1CC[C@H](NC(=O)c2ccc3c(c2)-c2cncn2CCO3)CC1 [Compound 37A, N-((1r,4r)-4-(Propylsulfonamido)cyclohexyl)-5,6-dihydrobenzo[f]imidazo[1,5-d][1,4]oxazepine-10-carboxamide]	< 30	1 to 10
O=C(Nc1cnc2c(c1)OCCO2)c1ccc2c(c1)-c1cncn1CCO2 [Compound 31A, N-(2,3-Dihydro-[1,4]dioxino[2,3-b]pyridin-7-yl)-5,6-dihydrobenzo[f]imidazo[1,5-d][1,4]oxazepine-10-carboxamide]	< 30	1 to 10
O=C(Nc1cnc(OCCCF)nc1)c1ccc2c(c1)-c1cncn1CCO2 [Compound 102A, N-(2-(3-Fluoropropoxy)pyrimidin-5-yl)-5,6-dihydrobenzo[f]imidazo[1,5-d][1,4]oxazepine-10-carboxamide]	< 30	1 to 10
O=C(N[C@H]1CC[C@@H](N2CCC(F)(F)C2)CC1)c1ccc2c(c1)-c1cncn1CCO2 [Compound 69A, N-((1s,4s)-4-(3,3-Difluoropyrrolidin-1-yl)cyclohexyl)-5,6-dihydrobenzo[f]imidazo[1,5-d][1,4]oxazepine-10-carboxamide]	100 to 1000	10 to 100
O=C(Nc1ccc2ncoc2c1)c1ccc2c(c1)-c1cncn1CCO2 [Compound 39A, N-(Benzo[d]oxazol-6-yl)-5,6-dihydrobenzo[f]imidazo[1,5-d][1,4]oxazepine-10-carboxamide]	< 30	1 to 10
CC(C)(N[C@H]1CC[C@H](NC(=O)c2ccc3c(c2)-c2cncn2CCO3)CC1)C(F)(F)F [Compound 88A, N-((1r,4r)-4-((1,1,1-Trifluoro-2-methylpropan-2-yl)amino)cyclohexyl)-5,6-dihydrobenzo[f]imidazo[1,5-d][1,4]oxazepine-10-carboxamide]	< 30	< 1
C[C@@H](N[C@H]1CC[C@H](NC(=O)c2ccc3c(c2)-c2cncn2CCO3)CC1)C(F)(F)F [Compound 74A, N-((1r,4r)-4-(((R)-1,1,1-Trifluoropropan-2-yl)amino)cyclohexyl)-5,6-dihydrobenzo[f]imidazo[1,5-d][1,4]oxazepine-10-carboxamide]	30 to 100	1 to 10
O=C(N[C@@H]1CCS(=O)(=O)C1)c1ccc2c(c1)-c1cncn1CCO2 [Compound 2A, (R)—N-(1,1-Dioxidotetrahydrothiophen-3-yl)-5,6-dihydrobenzo[f]imidazo[1,5-d][1,4]oxazepine-10-carboxamide]	< 30	1 to 10
CC1(C)Cn2cncc2-c2cc(C(=O)N[C@@H]3CCCOC3)ccc2O1 [Compound 38A, (R)-6,6-Dimethyl-N-(tetrahydro-2H-pyran-3-yl)-5,6-dihydrobenzo[f]imidazo[1,5-d][1,4]oxazepine-10-carboxamide]	> 1000	10 to 100
O=C(N[C@H]1CC[C@H](NC2CCC2(F)F)CC1)c1ccc2c(c1)-c1cncn1CCO2 (stereo partly shown) [Compound 82A, N-((1r,4r)-4-((2,2-Difluorocyclobutyl)amino)cyclohexyl)-5,6-dihydrobenzo[f]imidazo[1,5-d][1,4]oxazepine-10-carboxamide]	< 30	1 to 10
COCCO[C@H]1CC[C@H](NC(=O)c2cc(OC)c3c(c2)-c2cncn2CCO3)CC1 [Compound 54A, 8-Methoxy-N-((1r,4r)-4-(2-methoxyethoxy)cyclohexyl)-5,6-dihydrobenzo[f]imidazo[1,5-d][1,4]oxazepine-10-carboxamide]	< 30	1 to 10
CS(=O)(=O)c1cc(NC(=O)c2ccc3c(c2)-c2cncn2CCO3)ccc1F [Compound 21A, N-(4-Fluoro-3-(methylsulfonyl)phenyl)-5,6-dihydrobenzo[f]imidazo[1,5-d][1,4]oxazepine-10-carboxamide]	< 30	< 1
CN(C)c1nc2cc(NC(=O)c3ccc4c(c3)-c3cncn3CCO4)ccc2s1 [Compound 49A, N-(2-(Dimethylamino)benzo[d]thiazol-5-yl)-5,6-dihydrobenzo[f]imidazo[1,5-d][1,4]oxazepine-10-carboxamide]	< 30	10 to 100

Results, then the molecule that gave them:

IC50 (human CD38) [nM]	IC50 (mouse CD38) [nM]	Molecule
< 30	1 to 10	CC1(NC(=O)c2cc(Cl)c3c(c2)-c2cncn2CCO3)CCCCC1 [Compound 163A, 8-Chloro-N-(1-methylcyclohexyl)-5,6-dihydrobenzo[f]imidazo[1,5-d][1,4]oxazepine-10-carboxamide]
30 to 100	1 to 10	CC(O)C1CCC(NC(=O)c2ccc3c(c2)-c2cncn2CCO3)CC1 (stereo not shown) [Compound 126A, N-(4-(1-Hydroxyethyl)cyclohexyl)-5,6-dihydrobenzo[f]imidazo[1,5-d][1,4]oxazepine-10-carboxamide]
< 30	1 to 10	N-((1r,4r)-4-((1-(Trifluoromethyl)cyclopropyl)methoxy)cyclohexyl)-5,6-dihydrobenzo[f]imidazo[1,5-d][1,4]oxazepine-10-carboxamide [Compound 142A]
< 30	1 to 10	COCC1COc2ncc(NC(=O)c3ccc4c(c3)-c3cncn3CCO4)cc2O1 (stereo not shown) [Compound 145A, N-(2-(Methoxymethyl)-2,3-dihydro-[1,4]dioxino[2,3-b]pyridin-7-yl)-5,6-dihydrobenzo[f]imidazo[1,5-d][1,4]oxazepine-10-carboxamide]
< 30	< 1	CCC(O)(CN[C@H]1CC[C@H](NC(=O)c2ccc3c(c2)-c2cncn2CCO3)CC1)C(F)(F)F (stereo partly shown) [Compound 131A, N-((1r,4r)-4-((2-Hydroxy-2-(trifluoromethyl)butyl)amino)cyclohexyl)-5,6-dihydrobenzo[f]imidazo[1,5-d][1,4]oxazepine-10-carboxamide]
< 30	< 1	O=C(NC1CC2(CCC2)C1)c1cc(F)c2c(c1)-c1cncn1CCO2 [Compound 159A, 8-Fluoro-N-(spiro[3.3]heptan-2-yl)-5,6-dihydrobenzo[f]imidazo[1,5-d][1,4]oxazepine-10-carboxamide]
100 to 1000	> 100	CC(C)(CO[C@H]1CC[C@@H](NC(=O)c2cc(F)c3c(c2)-c2cncn2CCO3)CC1)C(F)(F)F [Compound 168A, 8-Fluoro-N-((1s,4s)-4-(3,3,3-trifluoro-2,2-dimethylpropoxy)cyclohexyl)-5,6-dihydrobenzo[f]imidazo[1,5-d][1,4]oxazepine-10-carboxamide]
